Read-outs that look alike come from different tables or passages of the source.
Key:
Target C = test: HiBiT protein abundance assay, Target C (K562 HiBiT knock-in); assay type: cell-based, human; conditions: HiBiT knock-in K562 cells, 24 hours, top dose 10 μM
Outline: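 K562 HiBiT knock-in cells (10000/well) were treated 24 h at 37° C with a 10-point 3-fold dilution series (top 10 μM final, ≤0.25% DMSO). HiBiT luminescence was read after lytic LgBiT detection. Percent response used unmodified K562 and DMSO-treated knock-in controls, and IC50 came from a four-parameter fit at 50% of untreated.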

SMN2 mRNA = test: RT-qPCR splicing assay, SMN2 mRNA; assay type: cell-based, human; conditions: canonical junction qPCR panel, Table 4, read-out: SMN2 IC50 (decrease in CJ mRNA levels)
Outline: (§1)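 A673 or K562 cells treated 24 h at 37 °C with 11-point 3-fold dilutions (top final 10 uM, DMSO ≤0.25%). Lysates analysed by one-step RT-qPCR for canonical (CJ) and alternative-exon (AJ) junctions, normalized to GAPDH, GUSB or PPIA. ΔΔCt vs DMSO, RQ = 2^(−ΔΔCt), expressed as percentage response.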

HTT mRNA = test: RT-qPCR splicing assay, HTT mRNA canonical (CJ) and alternative (AJ) junction; assay type: cell-based, human; conditions: for AC50: HTT alternative junction mRNA, read-out: HTT AJ (increase in AJ mRNA, AC50)
Outline: as §1

K562 cells = test: Cell Titer Glo 2.0 cell viability (toxicity) assay, K562; conditions: 500 cells/well, 72 hours
MYB = test: HiBiT protein abundance assay, MYB (K562 HiBiT knock-in); assay type: cell-based, human; conditions: HiBiT knock-in K562 cells, 24 hours, top dose 10 μM
Outline: (§2)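 Luminescence readout: Nano-Glo HiBiT lytic detection after 24 h compound exposure of K562 HiBiT knock-in cells, 10000 cells/well. Dosing 10-pt, 3-fold, top 10 μM final. % response vs untreated parental K562 and DMSO controls; 4PL fit, IC50 = concentration giving 50% protein abundance.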

MYB mRNA = test: RT-qPCR splicing assay, MYB mRNA canonical (CJ) and alternative (AJ) junction; assay type: cell-based, human; conditions: for AC50: MYB alternative junction mRNA, read-out: MYB AJ (increase in AJ mRNA, AC50)
Outline: as §1

HTT = test: HiBiT protein abundance assay, HTT (K562 HiBiT knock-in); assay type: cell-based, human; conditions: HiBiT knock-in K562 cells, 24 hours, top dose 10 μM
Outline: as §2

[1] = Homo sapiens, HTT canonical junction mRNA, RT-qPCR, read-out: HTT CJ (decrease in CJ mRNA levels, IC50)
[2] = Homo sapiens, canonical junction qPCR panel, Table 4, read-out: HTT IC50 (decrease in CJ mRNA levels)
[3] = Homo sapiens, MYB canonical junction mRNA, RT-qPCR, read-out: MYB CJ (decrease in CJ mRNA levels, IC50)
[4] = Homo sapiens, canonical junction qPCR panel, Table 4, read-out: MYB IC50 (decrease in CJ mRNA levels)

Row | SMILES | IC50 (Target C) [nM] | IC50 (SMN2 mRNA; Homo sapiens) [nM] | IC50 (HTT mRNA; [1]) [nM] | IC50 (HTT mRNA; [2]) [nM] | IC50 (MYB) [nM] | IC50 (MYB mRNA; [3]) [nM] | IC50 (MYB mRNA; [4]) [nM] | IC50 (HTT) [nM] | IC50 (SMN2 mRNA) [nM] | IC50 (HTT mRNA; HTT canonical junction mRNA, RT-qPCR, read-out: HTT CJ (decrease in CJ mRNA levels, IC50)) [nM] | IC50 (HTT mRNA; canonical junction qPCR panel, Table 4, read-out: HTT IC50 (decrease in CJ mRNA levels)) [nM] | IC50 (MYB mRNA; MYB canonical junction mRNA, RT-qPCR, read-out: MYB CJ (decrease in CJ mRNA levels, IC50)) [nM] | IC50 (MYB mRNA; canonical junction qPCR panel, Table 4, read-out: MYB IC50 (decrease in CJ mRNA levels)) [nM] | AC50 (HTT mRNA; Homo sapiens, RT-qPCR) [nM] | Effect of Exemplary Compounds on Cell Viability, K562 (K562 cells) | AC50 (MYB mRNA; Homo sapiens, RT-qPCR) [nM] | AC50 (HTT mRNA; RT-qPCR) [nM] | AC50 (MYB mRNA; RT-qPCR) [nM]
1 | COc1cc2nc(C)sc2cc1-c1ccc2nc(N3CCC(NC(C)(C)C)C3)ccc2n1 (stereo not shown) [Compound 176] | 1000 to 10000 | 1000 to 10000 | 1000 to 10000 | 1000 to 10000 | 1000 to 10000 | 1000 to 10000 | 1000 to 10000 | 1000 to 10000 |  |  |  |  |  | 1000 to 10000 | C (C represents 1000-9999 nM) | 1000 to 10000 |  | 
2 | COc1cc2nc(C)oc2cc1-c1ccc2nc(N3CCC(NC(C)(C)C)C3)ccc2n1 (stereo not shown) [Compound 177] | 1000 to 10000 | 1000 to 10000 | 1000 to 10000 | 1000 to 10000 | 1000 to 10000 | 1000 to 10000 | 1000 to 10000 | 1000 to 10000 |  |  |  |  |  | 1000 to 10000 | C (C represents 1000-9999 nM) | 1000 to 10000 |  | 
3 | Cn1cc2cc(-c3ccc4nc(N5CC[C@H](NCC(F)(F)F)C5)ccc4n3)c(O)cc2n1 [Compound 182] | > 10000 | 1000 to 10000 | 1000 to 10000 | 1000 to 10000 | > 10000 | 1000 to 10000 | 1000 to 10000 | > 10000 |  |  |  |  |  | > 10000 | D (D represents greater than 10 μM in K562 cells) | > 10000 |  | 
4 | Cn1cc2cc(-c3ccc4nc(C5CCNCC5)ccc4n3)ccc2n1 [Compound 184] | 100 to 1000 | < 100 | 100 to 1000 | 100 to 1000 | 100 to 1000 | 100 to 1000 | 100 to 1000 | 100 to 1000 |  |  |  |  |  | 100 to 1000 | B (B represents 100-1000 nM) | 100 to 1000 |  | 
5 | Cn1cc2cc(-c3ccc4nc(C5CCNCC5)ccc4n3)cc(F)c2n1 [Compound 185] | > 10000 | 100 to 1000 | 1000 to 10000 | 1000 to 10000 | 1000 to 10000 | 1000 to 10000 | 1000 to 10000 | 1000 to 10000 |  |  |  |  |  | 1000 to 10000 | C (C represents 1000-9999 nM) | 1000 to 10000 |  | 
6 | Cn1cc2cc(-c3ccc4nc(N5CC[C@@H](NC6COC6)C5)ccc4n3)c(O)cc2n1 [Compound 188] | 1000 to 10000 | < 100 | 100 to 1000 | 100 to 1000 | 1000 to 10000 | 100 to 1000 | 100 to 1000 | 100 to 1000 |  |  |  |  |  | 100 to 1000 | C (C represents 1000-9999 nM) | 100 to 1000 |  | 
7 | Cn1cc2cc(-c3ccc4nc(N5CC[C@H](NC6COC6)C5)ccc4n3)c(O)cc2n1 [Compound 189] | 1000 to 10000 | < 100 | 1000 to 10000 | 1000 to 10000 | 1000 to 10000 | 100 to 1000 | 100 to 1000 | 1000 to 10000 |  |  |  |  |  | 100 to 1000 | D (D represents greater than 10 μM in K562 cells) | 100 to 1000 |  | 
8 | Cc1nc2cc(O)c(-c3ccc4nc(N5CCC(NC(C)(C)C)C5)ccc4n3)cc2s1 (stereo not shown) [Compound 190] | > 10000 | < 100 | > 10000 | > 10000 | > 10000 | > 10000 | > 10000 | > 10000 |  |  |  |  |  | > 10000 | C (C represents 1000-9999 nM) | > 10000 |  | 
9 | Cn1cc2cc(-c3ccc4nc(N5CC[C@@H](NCC6CC6)C5)ccc4n3)c(O)cc2n1 [Compound 195] | 100 to 1000 | < 100 | 100 to 1000 | 100 to 1000 | < 100 | 100 to 1000 | 100 to 1000 | 100 to 1000 |  |  |  |  |  | 100 to 1000 | B (B represents 100-1000 nM) | < 100 |  | 

Second part, led by results:

Row | IC50 (Target C) [nM] | IC50 (SMN2 mRNA; Homo sapiens) [nM] | IC50 (HTT mRNA; [1]) [nM] | IC50 (HTT mRNA; [2]) [nM] | IC50 (MYB) [nM] | IC50 (MYB mRNA; [3]) [nM] | IC50 (MYB mRNA; [4]) [nM] | IC50 (HTT) [nM] | IC50 (SMN2 mRNA) [nM] | IC50 (HTT mRNA; HTT canonical junction mRNA, RT-qPCR, read-out: HTT CJ (decrease in CJ mRNA levels, IC50)) [nM] | IC50 (HTT mRNA; canonical junction qPCR panel, Table 4, read-out: HTT IC50 (decrease in CJ mRNA levels)) [nM] | IC50 (MYB mRNA; MYB canonical junction mRNA, RT-qPCR, read-out: MYB CJ (decrease in CJ mRNA levels, IC50)) [nM] | IC50 (MYB mRNA; canonical junction qPCR panel, Table 4, read-out: MYB IC50 (decrease in CJ mRNA levels)) [nM] | SMILES | AC50 (HTT mRNA; Homo sapiens, RT-qPCR) [nM] | Effect of Exemplary Compounds on Cell Viability, K562 (K562 cells) | AC50 (MYB mRNA; Homo sapiens, RT-qPCR) [nM] | AC50 (HTT mRNA; RT-qPCR) [nM] | AC50 (MYB mRNA; RT-qPCR) [nM]
10 | < 100 | < 100 | < 100 | < 100 | < 100 | < 100 | < 100 | < 100 |  |  |  |  |  | Cc1nc2cc(O)c(-c3ccc4nc(N5CCC(NC(C)(C)C)C5)ccc4n3)cc2o1 (stereo not shown) [Compound 175] | < 100 | B (B represents 100-1000 nM) | < 100 |  | 
11 | 100 to 1000 | < 100 | 100 to 1000 | 100 to 1000 | 100 to 1000 | 100 to 1000 | 100 to 1000 | 100 to 1000 |  |  |  |  |  | Cn1cc2cc(-c3ccc4nc(N5CCC6(CCN6)C5)ccc4n3)c(O)cc2n1 (stereo not shown) [Compound 178] | 100 to 1000 | B (B represents 100-1000 nM) | 100 to 1000 |  | 
12 | 100 to 1000 | < 100 | < 100 | < 100 | 100 to 1000 | 100 to 1000 | 100 to 1000 | < 100 |  |  |  |  |  | CCN[C@H]1CCN(c2ccc3nc(-c4cc5cn(C)nc5cc4O)ccc3n2)C1 [Compound 179] | < 100 | B (B represents 100-1000 nM) | < 100 |  | 
13 | 100 to 1000 | < 100 | < 100 | < 100 | < 100 | < 100 | < 100 | < 100 |  |  |  |  |  | CCN[C@@H]1CCN(c2ccc3nc(-c4cc5cn(C)nc5cc4O)ccc3n2)C1 [Compound 180] | 100 to 1000 | A (A represents <100 nM) | < 100 |  | 
14 | < 100 | < 100 | < 100 | < 100 | 100 to 1000 | 100 to 1000 | 100 to 1000 | < 100 |  |  |  |  |  | Cc1cn2nc(-c3ccc4nc(N5CCC(NC(C)(C)C)C5)ccc4n3)cc2c(C)n1 (stereo not shown) [Compound 187] | < 100 | B (B represents 100-1000 nM) | < 100 |  | 
15 | < 100 |  |  |  | < 100 |  |  | < 100 | > 10000 | > 10000 | > 10000 | > 10000 | > 10000 | Cc1c(O)c(-c2ccc3nc(N4CCC(NC(C)(C)C)C4)ccc3n2)cc2cn(C)nc12 (stereo not shown) [Compound 191] |  | A (A represents <100 nM) |  | > 10000 | > 10000
16 | 1000 to 10000 | 1000 to 10000 | 1000 to 10000 | 1000 to 10000 | 1000 to 10000 | 1000 to 10000 | 1000 to 10000 | 1000 to 10000 |  |  |  |  |  | Cn1cc2cc(-c3ccc4nc(C5CCNCC5)ccc4n3)c(F)cc2n1 [Compound 193] | 1000 to 10000 | C (C represents 1000-9999 nM) | 1000 to 10000 |  | 
17 | > 10000 | 1000 to 10000 | > 10000 | > 10000 | > 10000 | > 10000 | > 10000 | > 10000 |  |  |  |  |  | Cn1cc2cc(-c3ccc4nc(C5CCNCC5)ccc4n3)c(C(F)F)cc2n1 [Compound 196] | > 10000 | D (D represents greater than 10 μM in K562 cells) | > 10000 |  | 
